For 89 compounds, melting point results are on record in a melting point compilation (Tetko et al.; mined from patent text by program, amines drawn as free bases though some values may be those of a salt).

A value given as a limit tells only on which side of the number the result lay.

Regarding `COC(=O)C(Cc1cc([N+](=O)[O-])ccc1Cl)C(=O)OC`, the melting point (commonly the temperature, or range, at which the solid turns liquid) lay within 72 to 74 °C.
Next, `Cc1ccc(S(=O)(=O)N2[C@@H](CCO)CC[C@H]2c2ccc(F)cc2)cc1` (racemic): 129 °C; `O=c1oc2ccc(-c3ccc(F)cc3F)cc2c(=O)n1-c1cccc(C(F)(F)F)c1`: 165 to 166 °C.
Next, `CN(Cc1ccc(CCn2cnc3cc(-c4ccc(Cl)cc4)sc3c2=O)cc1)C(=O)OC(C)(C)C`: 206 to 209 °C; `Oc1ccc(Oc2ccc(Cl)cc2)cc1`: 85 to 86 °C; `Oc1ccc(OCCN2CCN(c3ccccc3)CC2)cc1`: 95 to 100 °C.
For the compound `COc1ccc(/C(=C/C=C/C(=O)O)c2cccs2)cc1`, the melting point was 214 to 216 °C.
`CN(C)C=C(C(=O)c1ccccc1)c1ccc(F)cc1` came in with a melting point of 115 to 116 °C.
Under `Cc1oc2cc(O)cc(O)c2c(=O)c1-c1ccc(F)cc1` stands 222 to 223 °C.
As for `Cc1cc(-c2[nH]c3ccc(OCc4ccccc4)cc3c2C)cc(C)c1O`, the melting point stood at 162 °C.
Under `COc1ccc(-c2cncc(OC3SCC(O)C(O)C3O)c2)c(C)c1` (centres undefined) stands 231 °C; under `COC(=O)Nc1cc(Oc2ccc3c(ccn3C(=O)Nc3ccc(CN4CCN(C)CC4)c(C(F)(F)F)c3)c2)ncn1`, 138 to 140 °C.
In turn, `C#Cc1ccc2c(=O)c(C(=O)OCC)cn(-c3ccc(F)cc3)c2c1` gave a melting point of 227 to 229 °C.
`O=C(CNC(=O)CN1CCCC1=O)NCC(=O)Nc1ccncc1` showed a melting point of 250 to 253 °C.
`CSc1ccc(O)cn1` yielded a melting point of 133 °C.
The compound `COn1c(C#N)c(Br)c(Br)c1-c1ccc(Cl)c(Cl)c1` returned a melting point of 145 to 150 °C.
Under `Clc1ccc(-c2ccc(Cl)nc2)cc1` stands 113 to 115 °C.
With `O=[N+]([O-])CS(=O)(=O)c1c(F)c(F)cc(F)c1F`, the melting point was in the range of 86 to 87 °C.
The compound `CS(=O)(=O)c1ccc(-n2nc(CO)cc2-c2ccc(-c3ccco3)cc2)cc1` had a melting point of 176 °C.
The compound `CS(=O)c1ccc(C#N)cc1` (centres undefined) yielded a melting point of 87 to 90 °C.
Next, `CC(=O)NC(=N[N+](=O)[O-])NCc1ccc(Cl)nc1`: 125 to 126 °C.
Under `CC1(C)CCC(C)(C)c2c(OCc3ccc(F)cc3)cc(C(O)c3ccc4cc(C(=O)O)ccc4c3)cc21` (centres undefined) stands 212 °C; under `CC1(C)CCc2c(N3CCSCC3)nc3sc4c(NCc5cccnc5)ncnc4c3c2C1`, 257 to 258 °C.
Under `CCOC(=O)c1c(CCn2ccnc2)nc2cc(OC)c(OC)cc2c1-c1ccc(OC)c(OC)c1` stands 173 to 174 °C; under `Cc1ccc(CN(O)C(N)=O)o1`, 105 °C; under `CCCn1c(=O)c2c(NC)n[nH]c2n(Cc2ccc(Cl)cc2)c1=O`, 305 to 307 °C.
On to `CCN(CC)C(=O)c1ccc([N+](=O)[O-])c(C)c1`, for which the melting point fell in the range of 74.5 to 76 °C.
Next, `Nc1c(C(=O)c2ccccc2)cnc2[nH]ncc12`: 282 to 283 °C; `Cc1cc(C)nc(NC(=O)Cc2c(Cl)sc3ccccc23)c1`: 123 to 124 °C; `CNCCOc1ccc(C(=C(c2ccccc2)C(F)(F)F)c2ccc(OCOC)cc2)cc1`: 87 to 90 °C.
As to `CCOC(=O)CCc1ccc(N[C@@H](CCC(N)=O)C(=O)O)cc1`, the melting point fell in the range of 180 to 181 °C.
Regarding `CCOCCOc1ccc(C(C)C)c(NC(=O)CN2CCN(CCSc3nc4ccccc4o3)CC2)c1C(C)C`, the melting point was in the range of 100 to 103 °C.
Under `CC(=O)Nc1cc(C(=O)O)ccc1C(F)(F)F` stands 195 to 197 °C; under `CC(C)c1ccc(N(C)C(=O)Cn2cnc3c2c(=O)n(C)c(=O)n3C)cc1`, 231 to 233 °C.
Under `CCCC(=O)C1=C(O)CC(c2cccnc2)CC1=O` (centres undefined) stands 72 °C; under `CC(C)S(=O)c1ccc2[nH]nc(Nc3nccs3)c2c1` (centres undefined), greater than 240 °C; under `CCOC(=O)C(=O)CCc1ccc(OC)c(OC)c1`, 85 to 87 °C.
The compound `Cc1nc2ccc(N3C[C@H](C(N)c4nccs4)OC3=O)cc2s1` (some centres undefined) had a melting point of 207 °C.
Compound `COc1ccccc1CNc1ccc2cc(Nc3ccccn3)ccc2n1` returned a melting point of 134 °C.
Next, `CC12CCC(OC(=O)c3ccccc3)CC1=CCC1C2CCC2(C)C(=NO)CCC12` (centres undefined): 165 to 170 °C.
Compound `CCN(C(=O)N1CCN(c2cc(C)cc(C)c2)CC1)c1nc(C)c(C)nc1OC` gave a melting point of 68 to 70 °C.
Next, `COc1ccn2c(C)c(CCc3ccc4nc(O)oc4c3)nc2c1`: 255 to 257 °C; `COc1ccc(C(=O)c2cccn2C)cc1`: 66 to 68 °C; `Cc1ccnc(NC(=O)c2nc3ccccc3[nH]2)c1`: 262 °C.
In the case of `CCCCCCCCCCCCCCCCCCOc1cc2ccccc2c(N)c1O`, the melting point fell in the range of 97 to 99 °C.
On to `COc1cc(C=O)ccc1OCc1nc(N2CCCCC2)sc1C`, for which the melting point was in the range of 80 to 81 °C.
The compound `Cc1nnnn1C(C=O)=C(c1ccc(F)cc1)c1ccc(F)cc1` showed a melting point of 151 to 152 °C.
On to `O=C1CC(=O)N(c2ccccc2)c2ccccc2N1NCCC1C2CC3CC(C2)CC1C3` (centres undefined), for which the melting point fell in the range of 196 to 197 °C.
Next, `Cc1ccc2nc3[nH]c(=O)[nH]c3cc2c1Cl`: greater than 360 °C.
In turn, `OCc1ccc(OCc2ccccc2)cc1OCc1ccccc1` displayed a melting point of 84 to 85 °C.
Under `CCCc1c(OCCCCC(C)(C)c2nnn[nH]2)ccc(C(C)=O)c1O` stands 112 to 115 °C.
The compound `O=S(=O)(c1ccc(N2CCCCCC2)cc1)N1CCCC1=S` displayed a melting point of 172 to 173 °C.
As to `CCC1CCc2c(sc3cc(N)ccc3c2=O)C1` (centres undefined), the melting point turned out to be 187 °C.
`N#Cc1[nH]c(-c2c(Cl)cc(C(F)(F)F)cc2Cl)nc1C(N)=O` showed a melting point of 254 to 255 °C.
Under `COc1ccc(Cc2cc(C3CCN(C(=O)Nc4ccccc4)CC3)nc(N)n2)cc1` stands 178 to 180 °C; under `COc1ccc(CN(C)CCCSc2ccc(NC(=O)c3cccc4c(=O)c5ccccc5[nH]c34)cc2)cc1OC`, 140 °C; under `O=c1ccn(-c2cccc(OC(F)F)c2)nc1-c1ccnn1-c1ccccc1`, 159 to 160 °C.
Under `COCCc1nc2cnc3cc(OCc4ccccc4)ccc3c2n1CC(C)(C)O` stands 170 to 172 °C.
Next, `O=C(O)c1cc(OCc2ccc(Cl)cc2)c(C(=O)c2ccccc2)c([N+](=O)[O-])c1`: 253 to 254 °C; `O=C(CN1C(=O)CC1S(=O)Cc1ccccc1)NCCCCCCc1ccccc1` (centres undefined): 138 to 140 °C; `CN(C)c1ccc(C2(c3ccc(N(C)C)cc3N(C)C)OC(=O)c3c(Cl)c(Cl)c(Cl)c(Cl)c32)cc1` (centres undefined): 227 to 229 °C.
Turning to `CCCN1CCC(=O)C(C(c2ccccc2)c2ccccc2)C1` (centres undefined), the melting point was 72 to 76 °C.
On to `Nc1nc2c(Cc3ccsc3)c[nH]c2c(=O)[nH]1`, for which the melting point lay in the range of 222 to 224 °C.
Under `CS(=O)c1nnc(-c2ccc3occ(-c4ccc(OC(F)(F)F)cc4)c3c2)o1` (centres undefined) stands 134 to 135 °C; under `CCOc1ccccc1C(=O)CCC(=O)O`, 125 to 127 °C; under `COc1cc(CN2C(=O)C3(COc4cc5c(cc43)OCCO5)c3ccccc32)ccc1F` (centres undefined), 161 to 163 °C.
Next, `CCc1nc2c(N)nc3cc(-c4cnc5ccccc5c4)cnc3c2n1CC(C)(C)O`: greater than 270 °C; `O=C1C2=NCC3(CCCC3)CN2c2ccc(S(=O)(=O)N3CCCC3CN3CCOCC3)cc21` (centres undefined): 163 to 164 °C.
For the compound `COC(=O)COc1cccc2c1cc(C)n2Cc1cccc(-c2ccccc2)c1`, the melting point fell in the range of 99 to 102 °C.
Under `CCOc1ccc(-c2ccc(Cl)nn2)c(OCC(O)CNC(C)(C)C)c1` (centres undefined) stands 115 to 117 °C.
Under `CC(C)OC(=O)N1CCC(c2ccc3nc(-c4ccc(S(C)(=O)=O)cc4F)sc3c2)CC1` stands 163 to 166 °C.
Under `Nc1c(F)c(N2CCC(n3ccnn3)C2)c(F)c2c1c(=O)c(C(=O)O)cn2-c1ccc(F)cc1F` (centres undefined) stands 308 to 309 °C; under `Cc1ccc(-c2cccc(C(=O)O)n2)cc1C(=O)NCC12CC3CC(CC(C3)C1)C2`, 227 °C.
`Cn1c(=O)nc(-c2ccccc2)c2cc(Cl)sc21`: the melting point is 136 to 140 °C.
Next, `CCCc1c(COc2ccc(C(=O)CCCCCCc3nnn[nH]3)cc2)ccc(C(C)=O)c1O`: 134 to 137 °C; `CC(C)(C)OC(=O)N1CCN(c2cc(Cl)ccc2N)CC1`: 125 to 127 °C; `Cc1oc(-c2ccccc2)nc1CCOc1ccc(CC(C(=O)O)C(=O)N(C)C)cc1` (centres undefined): 48.5 to 49.7 °C.
Compound `O=C1c2ccccc2CN1CCN1CCC(Cc2c[nH]c3ccc(F)cc23)CC1` returned a melting point of 175 °C.
Regarding `Cc1c(N2CCC(N)C(C)(C)C2)c(F)cc2c(=O)c(C(=O)O)cn(C3CC3)c12` (centres undefined), the melting point is 195 to 198 °C.
Next, `N#CCc1cccc2nnsc12`: 78 to 80 °C; `Cc1cc(Cc2cnc(N)nc2N)cc(C)c1N(C)C`: 162 to 163 °C; `COc1nc(C(=O)O)c(C(=O)NC(C)(C)C)s1`: 105 to 110 °C.
Compound `NCC1COc2cc(F)cc(-c3ccccc3Cl)c2N1` (centres undefined) showed a melting point of 86 °C.
Next, `CN(C)C1CCN(C(=O)N2CCC(c3[nH]nc4c3C(=O)c3c(NC(=O)NN5CCOCC5)cccc3-4)CC2)CC1`: 172 to 174 °C; `[N-]=[N+]=C1C(=O)Nc2ccc(F)cc21`: 209 to 210 °C.
Next, `CC(C)(C)c1ccc2c(c1)OC(C(F)(F)F)C(C(=O)O)=C2` (centres undefined): 166 to 167 °C; `O=C(Nc1ccc2[nH]c(=O)oc2c1)C(=O)N1CCC(Oc2ccc(Cl)cc2)CC1`: 242 to 244 °C; `Cc1c(C)c2c(c(C)c1O)CCC(C)(COc1ccc([N+](=O)[O-])cc1)O2` (centres undefined): 114 to 116 °C.
In turn, `CCCn1nc2c(O)nc3ccccc3c2c1CC(C)(C)O` returned a melting point of 294 to 296 °C.
